What was measured:
TNF-α = experiment: ELISA of RPE-choroid complex after laser injury: TNF-α; assay type: in vivo, rat; details: laser-treated animals, 3 days after laser injury; 0.3 mg/kg BW daily i.p.
Protocol: (§1) To block CB, a specific CBD, Compound 11 described above, was used (R-tech Ueno, Ltd., Tokyo, Japan). After laser injury, the inhibitor (0.3 mg/kg BW) was administered to the animals by daily i.p. injections. As a control, some animals received the same regimen for the vehicle solution alone.
The RPE-choroid complex was carefully isolated from eyes 3 days after photocoagulation and placed in 300 μl of lysis buffer supplemented with protease inhibitors and sonicated. The lysate was centrifuged at 15,000 rpm for 15 minutes at 4° C. and the levels of TNF-α, monocyte chemotactic protein (MCP)-1, and intercellular adhesion molecule (ICAM)-1 were determined with rat TNF-α (BI) bioscience), MCP-1 (BD bioscience) and ICAM-1 (R&D Systems, Minneapolis, Minn.) enzyme-linked immunosorbent assay (ELISA) kits according to the manufacturers' protocols. Total protein concentration was determined using a Bio-Rad Protein Assay Kit (Bio-Rad Laboratories Hercules, Calif.) and dilutions of bovine serum albumin (Bio-Rad Laboratories) as standards.

[1] = target: T1, monoamine oxidase (MAO)-A (Homo sapiens, UniProt P21397); details: functionally related monoamine oxidase; read-out: IC50 against MAO-A; cited from earlier work
T1 sequence (P21397 1-527): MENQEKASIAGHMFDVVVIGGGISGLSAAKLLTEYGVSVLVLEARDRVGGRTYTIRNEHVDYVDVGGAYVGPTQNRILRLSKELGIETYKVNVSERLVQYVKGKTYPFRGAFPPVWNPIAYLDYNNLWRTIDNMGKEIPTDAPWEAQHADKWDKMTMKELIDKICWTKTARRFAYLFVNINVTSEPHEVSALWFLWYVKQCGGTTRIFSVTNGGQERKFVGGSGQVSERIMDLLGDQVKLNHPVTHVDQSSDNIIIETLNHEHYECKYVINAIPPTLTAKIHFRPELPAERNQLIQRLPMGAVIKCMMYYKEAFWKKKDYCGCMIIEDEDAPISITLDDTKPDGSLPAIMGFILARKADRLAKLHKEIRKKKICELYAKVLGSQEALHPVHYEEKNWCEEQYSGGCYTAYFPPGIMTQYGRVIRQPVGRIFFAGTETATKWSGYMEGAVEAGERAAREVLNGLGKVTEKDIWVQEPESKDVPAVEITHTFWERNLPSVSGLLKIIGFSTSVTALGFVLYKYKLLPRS

[2] = test system: ED-1-positive cells in the CNV lesions; experiment: Quantification of macrophage infiltration into CNV lesions; assay type: in vivo, Brown-Norway rats
Protocol: as §1
At 1, 3, and 7 days after laser injury and treatment with either CBD or vehicle solution, animals were perfused with 200 ml of PBS/kg BW under deep anesthesia. Subsequently, eyes were enucleated and fixed overnight with 4% PFA, and 10 μm frozen sections of the posterior segment, including the center portion of CNV lesions (6 lesions per eye), were prepared and pre-blocked (PBS containing 10% goat serum, 0.5% gelatin, 3% BSA, and 0.2% Tween 20). […] The photographs of CNV lesions were taken, and the numbers of ED-1-positive cells were counted. To obtain a quantitative index of macrophage numbers in CNV lesions, an optical density plot of the selected area was generated by a histogram graphing tool in the Photoshop imageanalysis software (version 6.0: Adobe Systems, Mountain View, Calif.), as described in the literature (for example, Sakurai et al. (2003) IOVS 44: 3578-85). […]

## CC(=O)Nc1nc(CCc2ccc(NC(=N)NN)cc2)c(Cc2ccc(S(C)(=O)=O)cc2)s1 [Compound II]
TNF-α
  protein level of TNF-α in the RPE-choroid complex: 360 ± 12 pg/mg
[1]
  IC50: > 10 µM
[2]; 3 days after laser injury, 0.3 mg/kg BW daily i.p., n=4, p<0.05
  reduction of number of accumulated macrophages: 41%
[2]; laser injury model, rats
  effect on accumulation of macrophages in the CNV lesions (in words): significantly decreased

From patent publication US20220079889A1, “USE OF CANNABANOIDS IN THE TREATMENT OF PROLIFERATIVE DIABETIC RETINOPATHY” (VERDANT PHARMACEUTICALS, LLC, priority 2020, published 2022)
